Each structure is given as a SMILES string.

The Ki is a measure of affinity in units of concentration, obtained from inhibition or displacement. Low values mean a stronger hold on the target, high ones a looser hold on the target.

This assay deals with 5-hydroxytryptamine receptor 6 (Homo sapiens, UniProt P50406). The assay is described as follows: Displacement of [3H]LSD from human 5HT6 receptor expressed in HEK293 cells. The class given is cell-based. Background: Loss of bound radioactivity is the signal in a displacement assay; it reports binding, not function.
5-hydroxytryptamine receptor 6, sequence (P50406 whole entry): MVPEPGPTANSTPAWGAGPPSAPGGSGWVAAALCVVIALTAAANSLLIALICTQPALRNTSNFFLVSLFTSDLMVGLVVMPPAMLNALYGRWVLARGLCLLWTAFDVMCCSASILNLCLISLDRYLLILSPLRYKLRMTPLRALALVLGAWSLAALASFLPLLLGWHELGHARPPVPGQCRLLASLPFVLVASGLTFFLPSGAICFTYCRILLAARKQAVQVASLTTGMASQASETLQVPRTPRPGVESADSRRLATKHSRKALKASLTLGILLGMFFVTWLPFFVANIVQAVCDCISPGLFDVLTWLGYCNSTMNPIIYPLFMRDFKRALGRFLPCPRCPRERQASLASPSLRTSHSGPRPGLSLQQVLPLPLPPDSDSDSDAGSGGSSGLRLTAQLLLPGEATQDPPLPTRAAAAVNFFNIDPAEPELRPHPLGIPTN
In turn, `CNc1cc(NC)c2ccn(S(=O)(=O)c3ccccc3)c2c1` returned a Ki of 26 nM.

The molecule `c1cc(N2CCNCC2)c2cc[nH]c2c1` registered a Ki of 2700 nM. This Ki is about 100-fold higher than that of the molecule before.

For the molecule `Nc1ccc(S(=O)(=O)n2ccc3c(N4CCNCC4)cccc32)cc1`, the Ki amounted to 0.4 nM.

In turn, `Nc1ccc(S(=O)(=O)n2ccc3c([N+](=O)[O-])cc([N+](=O)[O-])cc32)cc1` returned an inhibitory constant (Ki) of 980 nM.

The molecule `Nc1ccc(S(=O)(=O)n2ccc3ccccc32)cc1` showed an inhibitory constant (Ki) of 10 nM.

Take `CNc1cc(NC)c2ccn(S(=O)(=O)c3ccc(N)cc3)c2c1`: affinity was put at a Ki of 1.9 nM. Against the preceding molecule, the Ki is about 5.3-fold lower.

The molecule `CNc1cccc2c1ccn2S(=O)(=O)c1ccc(N)cc1` came in with an inhibition constant (Ki) of 21 nM.

`CNc1ccc2ccn(S(=O)(=O)c3ccc(N)cc3)c2c1` showed an inhibition constant Ki of 7 nM.

For the origin of these results see ChEMBL document CHEMBL1141871, “Binding of amine-substituted N1-benzenesulfonylindoles at human 5-HT6 serotonin receptors” (Bioorg Med Chem Lett, 2005).
